The results in this text go back to patent publication US20240025887A1, “THIENYL AND CYCLOALKYL AMINOPYRIMIDINE COMPOUNDS AS INHIBITORS OF NUAK KINASES, COMPOSITIONS AND USES THEREOF” (Ontario Institute for Cancer Research (OICR), priority 2021, published 2024).

For orientation: IC50 means the point on the concentration scale where inhibition reaches its midpoint.

Common to all, as to format: biochemical
One assay has as its target T1, Aurora A (Homo sapiens, UniProt O14965).
T1 sequence (O14965 1-403): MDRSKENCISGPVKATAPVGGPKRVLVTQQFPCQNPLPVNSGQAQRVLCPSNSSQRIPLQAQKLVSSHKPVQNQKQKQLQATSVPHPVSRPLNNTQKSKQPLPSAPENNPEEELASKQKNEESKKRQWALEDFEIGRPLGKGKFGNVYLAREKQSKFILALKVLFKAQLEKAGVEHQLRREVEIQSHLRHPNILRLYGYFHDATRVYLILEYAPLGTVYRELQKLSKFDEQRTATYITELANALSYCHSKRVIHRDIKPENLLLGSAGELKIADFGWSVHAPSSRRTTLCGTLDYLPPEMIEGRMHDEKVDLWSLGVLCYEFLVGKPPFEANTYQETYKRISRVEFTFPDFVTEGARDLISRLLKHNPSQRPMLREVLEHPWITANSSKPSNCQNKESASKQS
Nature of the assay: Aurora A counter screen. The conditions noted are these: read-out: AUR-A (IC50). In outline: (§1)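 Radiometric assay with full-length recombinant NUAK2 in 8 mM MOPS pH 7.0, 0.2 mM EDTA, 10 mM magnesium acetate, 300 μM peptide substrate and [33P]-ATP, 40 min at room temperature. Phosphoric acid stop, filter capture, scintillation counting. Aurora A and NUAK1 used as counter screens.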
On the technique in general: A counterscreen serves to expose hits that act by an unwanted route or on another target.

The target of another assay is T2, NUAK1 (Homo sapiens, UniProt O60285).
T2 sequence (O60285 1-661): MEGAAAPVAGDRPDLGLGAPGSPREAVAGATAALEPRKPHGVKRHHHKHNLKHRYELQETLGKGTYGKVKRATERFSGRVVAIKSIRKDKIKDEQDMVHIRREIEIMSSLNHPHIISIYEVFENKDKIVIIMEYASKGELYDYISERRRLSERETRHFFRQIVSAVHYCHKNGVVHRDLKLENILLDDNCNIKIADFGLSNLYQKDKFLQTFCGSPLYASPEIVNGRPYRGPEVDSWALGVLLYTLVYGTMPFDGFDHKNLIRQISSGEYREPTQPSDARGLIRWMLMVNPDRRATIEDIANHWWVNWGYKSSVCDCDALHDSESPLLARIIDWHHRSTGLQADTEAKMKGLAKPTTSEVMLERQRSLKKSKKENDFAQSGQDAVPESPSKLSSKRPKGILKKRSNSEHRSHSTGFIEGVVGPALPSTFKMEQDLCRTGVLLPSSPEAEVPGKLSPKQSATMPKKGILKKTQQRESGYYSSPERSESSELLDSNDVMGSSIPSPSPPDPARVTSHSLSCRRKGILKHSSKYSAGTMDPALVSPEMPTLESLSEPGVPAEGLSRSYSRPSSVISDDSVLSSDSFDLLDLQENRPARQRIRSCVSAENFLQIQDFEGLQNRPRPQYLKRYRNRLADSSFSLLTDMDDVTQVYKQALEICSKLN
Nature of the assay: NUAK1 counter screen. The gist of the method:
as §1

A further assay concerns the target T3, NUAK2 (h) (Homo sapiens, UniProt Q9H093).
T3 construct: This assay was done radiometrically using full-length, recombinant enzyme; purchased Eurofins
T3 sequence (Q9H093 1-628): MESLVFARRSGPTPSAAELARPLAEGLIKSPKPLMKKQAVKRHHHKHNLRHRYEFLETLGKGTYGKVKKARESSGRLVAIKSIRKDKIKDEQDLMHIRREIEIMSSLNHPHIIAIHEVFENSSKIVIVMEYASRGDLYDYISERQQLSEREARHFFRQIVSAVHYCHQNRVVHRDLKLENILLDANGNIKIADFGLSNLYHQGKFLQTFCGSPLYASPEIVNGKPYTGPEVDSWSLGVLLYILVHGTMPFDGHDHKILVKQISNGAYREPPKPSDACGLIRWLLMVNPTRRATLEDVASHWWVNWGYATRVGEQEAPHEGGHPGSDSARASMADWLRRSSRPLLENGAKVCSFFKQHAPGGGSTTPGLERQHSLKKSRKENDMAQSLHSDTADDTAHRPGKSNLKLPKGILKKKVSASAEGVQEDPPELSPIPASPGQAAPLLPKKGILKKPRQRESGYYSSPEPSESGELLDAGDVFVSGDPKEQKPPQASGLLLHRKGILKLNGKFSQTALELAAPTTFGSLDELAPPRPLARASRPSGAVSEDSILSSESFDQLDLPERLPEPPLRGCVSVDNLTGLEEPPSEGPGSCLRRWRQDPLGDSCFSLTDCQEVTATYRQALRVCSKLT
As to the kind of experiment: NUAK2 enzymatic assay (radiometric, Eurofins). The conditions noted are these: radiometric, full-length recombinant enzyme. In outline: as §1

Take `NC(=O)c1sccc1Nc1nc(Nc2ccc(N3CCC(N4CCCCC4)CC3)cc2OC(F)F)ncc1Cl` [Compound I-58, 3-((2-((4-([1,4′-bipiperidin]-1′-yl)-2-(difluoromethoxy)phenyl)amino)-5-chloropyrimidin-4-yl)amino)thiophene-2-carboxamide]: the IC50 on Aurora A lay in the range of 101 to 1000 nM; against NUAK1 it was 0.1 to 10 nM; on NUAK2 (h), 0.1 to 10 nM.

As for `NC(=O)c1sccc1Nc1nc(Nc2ccc(N3CCC(O)CC3)cc2OC(F)F)ncc1Cl` [Compound I-60, 3-((5-chloro-2-((2-(difluoromethoxy)-4-(4-hydroxypiperidin-1-yl)phenyl)amino)pyrimidin-4-yl)amino)thiophene-2-carboxamide], the IC50 on Aurora A, against NUAK1 and at NUAK2 (h) was 11 to 100 nM in each case.

Regarding `CCN1CCN(C2CCN(c3ccc(Nc4ncc(Cl)c(Nc5ccsc5C(N)=O)n4)c(OC(F)F)c3)CC2)CC1` [Compound I-61, 3-((5-chloro-2-((2-(difluoromethoxy)-4-(4-(4-ethylpiperazin-1-yl)piperidin-1-yl)phenyl)amino)pyrimidin-4-yl)amino)thiophene-2-carboxamide], the IC50 at Aurora A, against NUAK1 and on NUAK2 (h) was 11 to 100 nM in each case.

For the compound `CC(C)N1CCN(C2CCN(c3ccc(Nc4ncc(Cl)c(Nc5ccsc5C(N)=O)n4)c(OC(F)F)c3)CC2)CC1` [Compound I-62, 3-((5-chloro-2-((2-(difluoromethoxy)-4-(4-(4-isopropylpiperazin-1-yl)piperidin-1-yl)phenyl)amino)pyrimidin-4-yl)amino)thiophene-2-carboxamide], the IC50 lay within 101 to 1000 nM on Aurora A, 11 to 100 nM on NUAK1 and 11 to 100 nM at NUAK2 (h).

Take `CC(C)(C)N1CCN(C2CCN(c3ccc(Nc4ncc(Cl)c(Nc5ccsc5C(N)=O)n4)c(OC(F)F)c3)CC2)CC1` [Compound I-63, 3-((2-((4-(4-(4-(tert-butyl)piperazin-1-yl)piperidin-1-yl)-2-(difluoromethoxy)phenyl)amino)-5-chloropyrimidin-4-yl)amino)thiophene-2-carboxamide]: the IC50 lay within 101 to 1000 nM on Aurora A, 0.1 to 10 nM on NUAK1 and 11 to 100 nM on NUAK2 (h).

As to `C[C@@H]1CN(C2CCN(c3ccc(Nc4ncc(Cl)c(Nc5ccsc5C(N)=O)n4)c(OC(F)F)c3)CC2)C[C@H](C)N1C` [Compound I-64, 3-((5-chloro-2-((2-(difluoromethoxy)-4-(4-((3R,5S)-3,4,5-trimethylpiperazin-1-yl)piperidin-1-yl)phenyl)amino)pyrimidin-4-yl)amino)thiophene-2-carboxamide], the concentration for half-maximal inhibition (IC50) at Aurora A was in the range of 101 to 1000 nM; on NUAK1, 11 to 100 nM; on NUAK2 (h), 0.1 to 10 nM.

Regarding `C[C@H]1CN(C2CCN(c3ccc(Nc4ncc(Cl)c(Nc5ccsc5C(N)=O)n4)c(OC(F)F)c3)CC2)CCN1C` [Compound I-65, (S)-3-((5-chloro-2-((2-(difluoromethoxy)-4-(4-(3,4-dimethylpiperazin-1-yl)piperidin-1-yl)phenyl)amino)pyrimidin-4-yl)amino)thiophene-2-carboxamide], the results for the IC50 on Aurora A, against NUAK1 and at NUAK2 (h) were 101 to 1000 nM, 11 to 100 nM and 11 to 100 nM, respectively.

On to `CN1CCC(N(C)c2ccc(Nc3ncc(Cl)c(Nc4ccsc4C(N)=O)n3)c(OC(F)F)c2)CC1` [Compound I-66, 3-((5-chloro-2-((2-(difluoromethoxy)-4-(methyl(1-methylpiperidin-4-yl)amino)phenyl)amino)pyrimidin-4-yl)amino)thiophene-2-carboxamide], for which the IC50 at Aurora A was 101 to 1000 nM; against NUAK1, 11 to 100 nM; on NUAK2 (h), 11 to 100 nM.

Consider `C[C@@H]1CN(C2CCN(c3ccc(Nc4ncc(C(F)(F)F)c(Nc5ccsc5C(N)=O)n4)c(OC(F)F)c3)CC2)C[C@H](C)N1C` [Compound I-67, 3-((2-((2-(difluoromethoxy)-4-(4-((3R,5S)-3,4,5-trimethylpiperazin-1-yl)piperidin-1-yl)phenyl)amino)-5-(trifluoromethyl)pyrimidin-4-yl)amino)thiophene-2-carboxamide], for which the IC50 was 101 to 1000 nM at Aurora A, 11 to 100 nM against NUAK1 and 11 to 100 nM on NUAK2 (h).

`C[C@H]1CN(C2CCN(c3ccc(Nc4ncc(C(F)(F)F)c(Nc5ccsc5C(N)=O)n4)c(OC(F)F)c3)CC2)CCN1C` [Compound I-68, (S)-3-((2-((2-(difluoromethoxy)-4-(4-(3,4-dimethylpiperazin-1-yl)piperidin-1-yl)phenyl)amino)-5-(trifluoromethyl)pyrimidin-4-yl)amino)thiophene-2-carboxamide]: the results for the IC50 at Aurora A, against NUAK1 and at NUAK2 (h) were 101 to 1000 nM, 11 to 100 nM and 11 to 100 nM, respectively.

Consider `C[C@@H]1CN(C2CCN(c3ccc(Nc4ncc(Cl)c(Nc5ccsc5C(N)=O)n4)c(OC(F)F)c3)CC2)C[C@@H](C)N1C` [Compound I-69, 3-((5-chloro-2-((2-(difluoromethoxy)-4-(4-((3R,5R)-3,4,5-trimethylpiperazin-1-yl)piperidin-1-yl)phenyl)amino)pyrimidin-4-yl)amino)thiophene-2-carboxamide], for which the figures for the 50% inhibitory concentration (IC50) on Aurora A, against NUAK1 and at NUAK2 (h) were 11 to 100 nM, 11 to 100 nM and 0.1 to 10 nM, respectively.

As to `C[C@H]1CN(C)CCN1C1CCN(c2ccc(Nc3ncc(Cl)c(Nc4ccsc4C(N)=O)n3)c(OC(F)F)c2)CC1` [Compound I-70, (S)-3-((5-chloro-2-((2-(difluoromethoxy)-4-(4-(2,4-dimethylpiperazin-1-yl)piperidin-1-yl)phenyl)amino)pyrimidin-4-yl)amino)thiophene-2-carboxamide], the IC50 on Aurora A, against NUAK1 and at NUAK2 (h) was 11 to 100 nM each time.

Regarding `NC(=O)c1sccc1Nc1nc(Nc2ccc(N3CCC(N4CCN5CCC[C@@H]5C4)CC3)cc2OC(F)F)ncc1Cl` [Compound I-71, (R)-3-((5-chloro-2-((2-(difluoromethoxy)-4-(4-(hexahydropyrrolo[1,2-a]pyrazin-2(1H)-yl)piperidin-1-yl)phenyl)amino)pyrimidin-4-yl)amino)thiophene-2-carboxamide], the IC50 at Aurora A, against NUAK1 and at NUAK2 (h) was 11 to 100 nM in each case.

In the case of `CN1CCCN(C2CCN(c3ccc(Nc4ncc(Cl)c(Nc5ccsc5C(N)=O)n4)c(OC(F)F)c3)CC2)CC1` [Compound I-72, 3-((5-chloro-2-((2-(difluoromethoxy)-4-(4-(4-methyl-1,4-diazepan-1-yl)piperidin-1-yl)phenyl)amino)pyrimidin-4-yl)amino)thiophene-2-carboxamide], the values for the IC50 at Aurora A, against NUAK1 and at NUAK2 (h) were 101 to 1000 nM, 11 to 100 nM and 11 to 100 nM, respectively.

For `CN(C1CCCCC1)C1CCN(c2ccc(Nc3ncc(Cl)c(Nc4ccsc4C(N)=O)n3)c(OC(F)F)c2)CC1` [Compound I-73, 3-((5-chloro-2-((4-(4-(cyclohexyl(methyl)amino)piperidin-1-yl)-2-(difluoromethoxy)phenyl)amino)pyrimidin-4-yl)amino)thiophene-2-carboxamide], the IC50 on Aurora A fell in the range of 101 to 1000 nM; against NUAK1, 11 to 100 nM; on NUAK2 (h), 11 to 100 nM.

Turning to `NC(=O)c1sccc1Nc1nc(Nc2ccc(N3CCC(N4CCCCC4)CC3)cc2OC(F)F)ncc1C(F)(F)F` [Compound I-76], the IC50 was in the range of 101 to 1000 nM at Aurora A, 11 to 100 nM at NUAK1 and 0.1 to 10 nM at NUAK2 (h).
